# From ChEMBL document CHEMBL4765258 (Eur J Med Chem, 2020)
# Calls of active or inactive are those of the source. No cut-off for these calls is given here.
# Tests used:
# [1] = target: T1, Nuclear factor erythroid 2-related factor 2 (Homo sapiens) (UniProt Q16236); assay: Activation of NRF2 in human AREc32 cells incubated for 24 hrs by luciferase reporter gene assay; assay type: cell-based
# T1 sequence (whole entry): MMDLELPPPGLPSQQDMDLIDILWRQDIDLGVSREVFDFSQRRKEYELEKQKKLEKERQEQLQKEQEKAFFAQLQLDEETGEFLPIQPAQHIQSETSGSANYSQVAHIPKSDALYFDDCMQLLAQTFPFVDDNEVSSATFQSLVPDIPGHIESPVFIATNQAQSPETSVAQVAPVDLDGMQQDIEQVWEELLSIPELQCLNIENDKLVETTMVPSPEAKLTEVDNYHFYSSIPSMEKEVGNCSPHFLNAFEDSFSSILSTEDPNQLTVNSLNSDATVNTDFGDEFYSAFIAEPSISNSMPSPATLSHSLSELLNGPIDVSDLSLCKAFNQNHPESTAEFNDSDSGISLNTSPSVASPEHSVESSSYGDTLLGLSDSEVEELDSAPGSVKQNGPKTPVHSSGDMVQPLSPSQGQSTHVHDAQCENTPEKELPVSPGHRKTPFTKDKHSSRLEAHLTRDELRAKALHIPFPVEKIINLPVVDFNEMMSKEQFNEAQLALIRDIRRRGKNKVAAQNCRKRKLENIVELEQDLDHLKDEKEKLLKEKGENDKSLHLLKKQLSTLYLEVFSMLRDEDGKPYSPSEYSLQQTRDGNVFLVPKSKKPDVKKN
# [2] = target: Kelch-like ECH-associated protein 1 (Homo sapiens) (UniProt Q14145); assay: Binding affinity to human recombinant Keap1 Kelch domain expressed in Escherichia coli BL21 (DE3) by SPR assay
# Kelch-like ECH-associated protein 1 (Homo sapiens), sequence (Q14145 whole entry, the tested form may be a part): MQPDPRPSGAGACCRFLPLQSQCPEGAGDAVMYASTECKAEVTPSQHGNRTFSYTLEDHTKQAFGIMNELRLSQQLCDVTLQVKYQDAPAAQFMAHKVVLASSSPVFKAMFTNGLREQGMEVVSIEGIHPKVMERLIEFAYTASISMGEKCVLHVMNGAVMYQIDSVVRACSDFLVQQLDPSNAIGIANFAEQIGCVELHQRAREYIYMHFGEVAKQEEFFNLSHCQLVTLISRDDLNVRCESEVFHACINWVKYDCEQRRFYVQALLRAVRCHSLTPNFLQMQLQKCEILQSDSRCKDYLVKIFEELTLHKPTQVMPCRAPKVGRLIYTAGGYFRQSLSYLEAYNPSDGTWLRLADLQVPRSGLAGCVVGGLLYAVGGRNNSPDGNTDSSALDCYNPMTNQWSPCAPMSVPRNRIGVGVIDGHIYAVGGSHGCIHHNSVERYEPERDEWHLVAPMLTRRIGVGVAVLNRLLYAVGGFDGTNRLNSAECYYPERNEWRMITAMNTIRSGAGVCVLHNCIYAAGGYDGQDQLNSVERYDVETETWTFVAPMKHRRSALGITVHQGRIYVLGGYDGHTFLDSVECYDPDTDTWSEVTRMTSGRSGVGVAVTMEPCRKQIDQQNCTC
# [3] = Antioxidant activity assessed as AAPH radical scavenging activity preincubated for 15 mins measured every min for 80 mins by ORAC-FL assay relative to trolox; assay type: functional
# [4] = Displacement of [125l]-lodomelatonin from hamster brain cell QR2 incubated for 60 mins by scintillation counting analysis
# [5] = target: T2, Amine oxidase [flavin-containing] B (Homo sapiens, UniProt P27338)
# T2 sequence (P27338 whole entry): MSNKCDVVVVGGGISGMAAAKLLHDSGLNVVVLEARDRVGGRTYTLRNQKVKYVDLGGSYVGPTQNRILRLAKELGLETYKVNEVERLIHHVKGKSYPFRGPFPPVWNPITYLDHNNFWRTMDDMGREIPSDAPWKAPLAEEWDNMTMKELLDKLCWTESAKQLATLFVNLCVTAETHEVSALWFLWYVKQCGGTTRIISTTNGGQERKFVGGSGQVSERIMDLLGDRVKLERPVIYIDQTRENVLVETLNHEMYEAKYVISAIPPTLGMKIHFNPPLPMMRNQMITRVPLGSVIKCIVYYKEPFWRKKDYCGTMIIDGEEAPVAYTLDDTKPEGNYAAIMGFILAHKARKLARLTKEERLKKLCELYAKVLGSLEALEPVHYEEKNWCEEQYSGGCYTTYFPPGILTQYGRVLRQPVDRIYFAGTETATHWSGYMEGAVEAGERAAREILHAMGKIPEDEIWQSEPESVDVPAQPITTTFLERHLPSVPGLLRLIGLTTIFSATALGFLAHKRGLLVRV
# Description: Inhibition of human MAO-B using p-tyramine as substrate by Amplex Red reagent based fluorescence analysis
# [6] = target: T3, Melatonin receptor type 1B (Homo sapiens, UniProt P49286); assay: Displacement of [125l]-lodomelatonin from human MT2 receptor expressed in CHO cells incubated for 120 mins by scintillation counting analysis; assay type: cell-based
# T3 sequence (P49286 whole entry): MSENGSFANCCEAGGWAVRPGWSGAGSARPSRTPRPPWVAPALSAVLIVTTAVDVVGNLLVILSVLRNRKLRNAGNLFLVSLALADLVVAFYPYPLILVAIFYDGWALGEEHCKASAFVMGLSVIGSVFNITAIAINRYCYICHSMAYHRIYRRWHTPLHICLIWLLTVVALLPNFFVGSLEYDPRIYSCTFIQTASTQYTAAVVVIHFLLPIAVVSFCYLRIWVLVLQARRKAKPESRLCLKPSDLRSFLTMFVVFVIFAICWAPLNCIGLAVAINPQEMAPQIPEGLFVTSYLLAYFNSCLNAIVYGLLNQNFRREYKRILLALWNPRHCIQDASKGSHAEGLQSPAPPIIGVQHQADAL
# [7] = target: T4, Polyunsaturated fatty acid 5-lipoxygenase (Homo sapiens, UniProt P09917); assay: Inhibition of human 5-Lipoxygenase using H2DCFDA as substrate preincubated for 5 mins and measured by Spectrophotometric assay
# T4 sequence (P09917 whole entry): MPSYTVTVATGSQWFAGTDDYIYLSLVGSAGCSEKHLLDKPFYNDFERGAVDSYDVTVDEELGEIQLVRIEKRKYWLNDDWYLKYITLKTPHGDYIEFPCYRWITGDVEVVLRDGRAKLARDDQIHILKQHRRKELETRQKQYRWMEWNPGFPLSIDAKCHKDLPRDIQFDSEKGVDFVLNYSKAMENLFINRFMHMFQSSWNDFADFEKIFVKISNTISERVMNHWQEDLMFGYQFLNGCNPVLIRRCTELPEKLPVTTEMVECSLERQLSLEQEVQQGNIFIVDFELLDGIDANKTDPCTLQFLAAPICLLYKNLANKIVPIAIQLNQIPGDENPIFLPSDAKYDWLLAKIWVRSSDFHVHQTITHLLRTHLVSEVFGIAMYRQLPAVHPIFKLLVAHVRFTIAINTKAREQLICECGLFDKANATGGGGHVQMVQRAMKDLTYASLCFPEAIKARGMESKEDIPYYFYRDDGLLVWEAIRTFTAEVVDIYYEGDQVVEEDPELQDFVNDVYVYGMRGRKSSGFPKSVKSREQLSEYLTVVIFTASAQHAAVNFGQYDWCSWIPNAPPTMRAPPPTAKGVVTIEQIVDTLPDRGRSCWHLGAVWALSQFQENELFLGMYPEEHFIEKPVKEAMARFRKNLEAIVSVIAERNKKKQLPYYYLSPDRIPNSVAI
# [8] = target: T5, Melatonin receptor type 1A (Homo sapiens, UniProt P48039); assay: Displacement of [125l]-lodomelatonin from human MT1 receptor expressed in CHO cells incubated for 120 mins by scintillation counting analysis; assay type: cell-based
# T5 sequence (P48039 whole entry): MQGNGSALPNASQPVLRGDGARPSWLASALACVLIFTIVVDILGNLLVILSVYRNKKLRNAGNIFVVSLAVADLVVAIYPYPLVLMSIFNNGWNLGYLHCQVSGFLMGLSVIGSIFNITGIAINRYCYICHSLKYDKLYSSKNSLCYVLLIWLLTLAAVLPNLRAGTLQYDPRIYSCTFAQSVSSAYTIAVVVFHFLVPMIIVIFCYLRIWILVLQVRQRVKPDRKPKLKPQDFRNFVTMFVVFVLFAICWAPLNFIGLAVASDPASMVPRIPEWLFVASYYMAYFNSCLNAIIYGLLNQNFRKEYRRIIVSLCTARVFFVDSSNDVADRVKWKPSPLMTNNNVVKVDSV
# [9] = target: T6, Amine oxidase [flavin-containing] A (Homo sapiens, UniProt P21397)
# T6 sequence (P21397 whole entry): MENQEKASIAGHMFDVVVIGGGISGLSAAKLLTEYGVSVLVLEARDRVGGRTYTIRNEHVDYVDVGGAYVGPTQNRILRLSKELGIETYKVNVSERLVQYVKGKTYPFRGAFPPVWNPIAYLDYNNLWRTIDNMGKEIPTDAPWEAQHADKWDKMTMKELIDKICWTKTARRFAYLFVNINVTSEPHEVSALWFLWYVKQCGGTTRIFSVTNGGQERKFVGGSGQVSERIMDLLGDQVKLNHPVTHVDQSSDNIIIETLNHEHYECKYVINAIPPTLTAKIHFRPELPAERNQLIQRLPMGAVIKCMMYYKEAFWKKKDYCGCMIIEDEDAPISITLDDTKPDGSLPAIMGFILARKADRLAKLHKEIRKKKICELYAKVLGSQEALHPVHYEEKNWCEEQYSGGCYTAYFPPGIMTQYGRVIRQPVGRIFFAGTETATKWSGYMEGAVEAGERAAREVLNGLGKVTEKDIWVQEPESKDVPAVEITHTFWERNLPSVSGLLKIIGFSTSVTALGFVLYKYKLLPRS
# Description: Inhibition of human MAO-A using p-tyramine as substrate by Amplex Red reagent based fluorescence analysis
# [10] = Permeability of compound by PAMPA-BBB assay
# Cricetinae = assay: Displacement of [125l]-lodomelatonin from hamster brain cell QR2 at 100 nM incubated for 60 mins by scintillation counting analysis relative to control; assay type: tissue-based
# [11] = target: T5, Melatonin receptor type 1A; assay: Displacement of [125l]-lodomelatonin from human MT1 receptor expressed in CHO cells incubated for 120 mins by scintillation counting analysis relative to control; assay type: cell-based
smiles,measurement,setting,value
COc1ccc2c(c1)C(/C=C/c1n[nH]c(=O)o1)=CCC2,CD,[1],> 30 µM
COc1ccc2[nH]cc(/C=C/c3n[nH]c(=O)o3)c2c1,CD,[1],> 60 µM
same,Activity,[2],Active
CCCn1nc(CCc2c[nH]c3ccc(OC)cc23)oc1=O,Activity,[1]; filed as activator,2.3 equiv
same,Activity,[2],inactive
COc1ccc2[nH]cc(CCc3nn(CC4CCC4)c(=O)o3)c2c1,Activity,[3],2.2 equiv
COc1ccc2[nH]cc(CCc3nn(CCCc4ccccc4)c(=O)o3)c2c1,Activity,[3],2.7 equiv
C#CCn1nc(/C=C/c2c[nH]c3ccc(OC)cc23)oc1=O,CD,[1]; filed as activator,15.1 µM
same,Activity,[2],Active
C=CCNC(=O)/C=C/c1c[nH]c2ccc(OC)cc12,CD,[1]; filed as activator,27.4 µM
same,Activity,[2],inactive
COc1ccc2[nH]cc(CCc3nn(CC4CCCC4)c(=O)o3)c2c1,Activity,[3],2.8 equiv
COc1ccc2[nH]cc(CCNC(C)=O)c2c1 [MELATONIN],Ki,[4],77 nM
same,Activity,[3],< 0.1 equiv
C[S+]([O-])CCCCN=C=S (centres undefined),CD,[1]; filed as activator,0.54 µM
C#CCNC(=O)/C=C/c1c[nH]c2ccc(OC)cc12,CD,[1]; filed as activator,1.76 µM
same,Activity,[2],Active
CCCCCCCn1nc(CCc2c[nH]c3ccc(OC)cc23)oc1=O,Activity,[3],2.1 equiv
CCCCCCn1nc(CCc2c[nH]c3ccc(OC)cc23)oc1=O,Activity,[3],3 equiv
CNc1nnc(CCc2c[nH]c3ccc(OC)cc23)o1,IC50,[5],37000 nM
same,Ki,[6],110 nM
same,IC50,[7],60600 nM
same,Ki,[8],550 nM
same,Ki,[4],330 nM
same,Activity,[3],1.8 equiv
same,IC50,[9],> 50000 nM
COc1ccc2cccc(/C=C/c3n[nH]c(=O)o3)c2c1,CD,[1],> 30 µM
COc1ccc2[nH]cc(CC(C)c3n[nH]c(=O)o3)c2c1 (centres undefined),CD,[1],> 30 µM
same,Activity,[2],inactive
COc1ccc2[nH]cc(CCc3n[nH]c(=O)o3)c2c1,Papp,[10],< 2 ×10⁻⁶ cm/s
same,Ki,[4],> 100 nM
same,inhibition,Cricetinae,5%
same,Activity,[3],2.7 equiv
COc1cc2cccc(/C=C/c3n[nH]c(=O)o3)c2cc1OC,CD,[1],> 30 µM
same,Ki,[6],69 nM
same,inhibition,[11],63%
same,Ki,[8],> 1000 nM
same,Activity,[3],< 0.1 equiv
same,Activity,[2],inactive
